# Experiments:
# CD4/8+ T cells = test: Intracellular IFN-γ after PMA/ionomycin stimulation of expanded T cells; type: cell-based, human; details: IL-2 and Cbl inhibitor expanded T cells; PMA/ionomycin 6 h
# Description: T cell activity was determined by analysis of cytokine secretion. To investigate whether these expanded T cells are capable of responding to extracellular stimulation, T cells were stimulated with 25 ng/mL phorbol myristate acetate (PMA) and 0.5 μM ionomycin. After 90 min of stimulation, monensin, 1:50, (GolgiStop, BD Biosciences) was added. After 6 h, cells were stained for surface expression of CD4+, CD8+, CD45RA+, CD95+, CCR7+, CD62L+, and subsequently, fixed, permeabilized and stained for intracellular cytokine, IFN-γ.
# [1] = Compound stability in complete RPMI with 10% human serum (mass spectrometry); type: physicochemical
# Description: To assess compound stability, at day 1, 1 μM compound 103 or DMSO was added to complete RMPI containing 10% human serum and stored at either 4° C., 22° C. or 37° C. over an 11 day time period. Concentration of compound 103 was assessed at each indicated timepoint and storage temperature by mass spectrometry. Compound 103 was stable for at least 11 days in RPMI medium (FIG. 33).
# breast TIL = test: CDR3 diversity of expanded breast TIL (iRepertoire sequencing); type: cell-based, human; details: compound 103 alone or with high dose IL-2; 14 days in GREX10
# Description: TIL were cultured for 14 days in GREX10. […] The raw data were analyzed by iRepertoire using IRmap programs with a modified Smith-Waterman algorithm. Using CDR3 algerbra software, the calculation of shared CDR3s across samples with the indicated treatment was assessed. […] All CDR3 frequencies were scaled to 10 million reads to account for differences in read depth among samples. Data was normalized so that each uCDR3-VDJ combination was treated as a quantity of 1 regardless of read count, and then analyzed for V usage and J usage.
# OT-1 cells = test: Tumor re-challenge of long term survivors 149 days after OT-1 transfer; type: in vivo, mouse
# Source text: To determine whether OT-1 cells are capable of long-term tumor protection, the long term survivors of the above experiment (FIG. 12) were re-challenged with a lethal dose of E.G7-OVA tumor cells 149 days after the initial adoptive transfer of the in vitro expanded OT-1 cells. Re-challenge induced OT-1 cell expansion at the site engrafted with E.G7-OVA tumor cells expressing ovalbumin antigen, thereby effectively controlling tumor growth (FIG. 21).
# E.G7-OVA tumors = test: Adoptive transfer of ex vivo expanded OT-1 cells into E.G7-OVA tumor-bearing mice: antitumor response; type: in vivo, mouse
# Source text: Antigen specific T cells from transgenic mice can be leveraged as a model for CAR T or TIL expansion ex vivo with a Cbl inhibitor. The OT-1 transgenic animals, that are commercially available, have CD8 T cells that recognize OVA peptide aa 257-264 when presented by the MHC I molecule. CD8+ T cells from OT-1 mice were isolated from a single cell suspension of splenocytes by negative selection (StemCell Technologies cat #19853 EasySep™ Mouse CD8+ T Cell Isolation Kit). Cell were then resuspended in complete media (RPMI1640, 10% heat inactivated FBS, 1× Penicillin/Streptomycin, 1× Glutamine and […]-mercaptoethanol) at concentration of 0.5×10^6 per mL. Six well tissue culture plates (Falcon) were coated with 2 ug/mL of anti-mouse CD3 (Bio Xcell Cat #BE0001-1-R100 mg InVivoMAb anti-mouse CD3ε Clone: 145-2C11) for >3 hrs at 37° C. and washed with PBS (MediaTech) prior to cell addition. […] Following three days of OT-1 T cell activation and expansion the cells were collected, counted and immunophenotyped by flow cytometry by measuring expression of differentiation and additional T cell makers including: CD3, CD4, CD8, CD45, CD25, Granzyme B, CD107a, CD127, PD-1, TIM3, LAG3, KLRG-1, ICOS, TCF1, Ki67, T-bet and FOXP3.
# Dead cells were removed (Miltenyi Biotec Cat #130-090-101) prior to transfer in vivo to monitor their trafficking and function in an EG.7 lymphoma model, which expresses the OVA antigen. Approximately five million cells per mouse were transferred to mice having an average tumor burden of about 70 mm^3. Following in vivo transfer of the OT-1 cells, antitumor response was monitored over time and the quality and quantity of immune response were assessed at various time points.
# The expanded OT-1 cells were characterized by FACS analysis and transferred into E.G7-OVA mice, which bear ovalbumin (OVA) expressing tumors. Following in vivo transfer of expanded OT-1 cells, antitumor response was monitored over time and the quality and quantity of immune response was assessed at various time points. Analysis included FACS analysis on blood, tumor, and spleen samples. Analysis also included re-stimulation of splenocytes with OVA Class I peptide to evaluate the multifunctionality of the antigen-specific effector T cells.
# On Day 0, E.G7-OVA cells were implanted into each mouse. On Day 5, approximately 5×10^6 in vitro expanded OT-1 cells were injected into the tail of each mouse. On Day 9, blood was analyzed by FACS. On Day 14, blood, tumor and spleen samples were analyzed by FACS. On Day 27, blood was analyzed by FACS. Tumor volume was measured approximately every five days through about 50 days post implant.
# TIL = test: Cytokine and chemokine secretion of expanded TIL (Luminex); type: cell-based, human
# Description: Also assessed were cytokines and chemokines secreted during the 14 day expansion in GREX.
# Supernatants were assessed by Luminex.
# [2] = tested on: human T cells from peripheral blood mononuclear cells; test: Expansion of CMV pp65 reactive T cells from peripheral blood mononuclear cells; type: cell-based; details: for Expansion of T cells from PBMC, total cell number relative to IL-2 alone: day 11
# Source text: At day eleven, cells were pooled and counted, and immunophenotyped at day 11 by flow cytometry by measuring expression of lineage (CD4, CD8) and differentiation (including CD45RA, CD45RO, CD95, CCR7, CD62L, TCF1, PD-1, TIM3, LAG3) markers.
smiles,measurement,setting,value
C[C@@H]1CN(Cc2cc3c(c(C(F)(F)F)c2)CN(c2cccc(C4(Cc5nncn5C)COC4)c2)C3=O)CCC1(F)F [compound 103],CD4/8+ T cells capable of producing IFN-γ,CD4/8+ T cells,greater than 85%
same,Stability in RPMI medium,"[1]; 1 μM, complete RPMI with 10% human serum, 4° C., 22° C. or 37° C.",at least 11 days
same,Stability at multiple temperatures,"[1]; 4° C.-37° C., 11 day period, FIG. 33",stable
same,Unique CDR3s,breast TIL,Unique CDR3s increased
same,Number of OT-1 cells in blood (in vivo persistence),"OT-1 cells; 149 days after transfer, expanded with Cbl inhibitor or Cbl inhibitor plus IL-2",present at a higher number in the blood
same,Recall response after tumor re-challenge vs IL-2 alone,"OT-1 cells; OT-1 cells per ml of blood at day 5, Cbl inhibitor or Cbl inhibitor plus IL-2",significantly more rapid recall response
same,Anti-tumor phenotype of transferred T cells vs controls,"E.G7-OVA tumors; 3-day ex vivo exposure, alone or in combination with IL-2",conferred a lasting anti-tumor phenotype for over a month
same,Inhibition of tumor growth vs IL-2 expanded cells,"E.G7-OVA tumors; OT-1 cells expanded with compound 103, FIG. 12A",more pronounced inhibition of tumor growth
same,Long-term survival vs IL-2 expanded cells,"E.G7-OVA tumors; OT-1 cells expanded with compound 103, FIG. 12B",improved long-term survival
same,Inhibition of tumor growth vs single agents alone,"E.G7-OVA tumors; OT-1 cells expanded with compound 103 plus IL-2, FIG. 12A",more pronounced inhibition of tumor growth
same,Long term survival vs single agents alone,"E.G7-OVA tumors; OT-1 cells expanded with compound 103 plus IL-2, FIG. 12B",superior long term survival
same,Potency of expanded CD8+ OT-1 cells (tumor volume) vs IL-2 expanded,"E.G7-OVA tumors; expanded with compound 103 (1 μM) alone, FIGS. 11A and 11B",at least as potent
same,Rejection of established tumors by expanded OT-1 cells,"E.G7-OVA tumors; mice subcutaneously implanted with E.G7-OVA cells, FIG. 9",potent effectors capable of rejecting established tumors
same,"GMCSF, MIP1α, MIP1β and IP10 secreted during 14 day expansion in GREX",TIL; IL-2 + compound 103,trending increases
same,IFN-γ secreted during 14 day expansion in GREX,TIL; IL-2 + compound 103,significant increase of IFN-γ
same,"Secretion of IL-2, IL-5, IL-7, IL-21, IL-23, TNF-α, and IFN-γ upon stimulation","TIL; high dose IL-2 + 1 μM compound 103, 24 hours",significant secretion
same,Secretion of MIP1α and MIP1β upon stimulation,"TIL; high dose IL-2 + 1 μM compound 103, anti-CD3/CD28 24 hours",significant increases in secretion
same,Expansion of T cells,[2]; Cbl inhibitor in the absence of IL-2,considerable expansion of T cells
same,"Expansion of T cells from PBMC, total cell number relative to IL-2 alone","[2]; Donor 1, 0.1 μM Cbl-i",12%
same,"Expansion of T cells from PBMC, total cell number relative to IL-2 alone","[2]; Donor 1, 1.0 μM Cbl-i",12%
same,"Expansion of T cells from PBMC, total cell number relative to IL-2 alone","[2]; Donor 1, 10 μM Cbl-i",44%
same,"Expansion of T cells from PBMC, total cell number relative to IL-2 alone","[2]; Donor 1, IL-2 + 0.1 μM Cbl-i",614%
same,"Expansion of T cells from PBMC, total cell number relative to IL-2 alone","[2]; Donor 1, IL-2 + 1.0 μM Cbl-i",1007%
same,"Expansion of T cells from PBMC, total cell number relative to IL-2 alone","[2]; Donor 1, IL-2 + 10 μM Cbl-i",898%
same,"Expansion of T cells from PBMC, total cell number relative to IL-2 alone","[2]; Donor 2, 0.1 μM Cbl-i",70%
same,"Expansion of T cells from PBMC, total cell number relative to IL-2 alone","[2]; Donor 2, 1.0 μM Cbl-i",95%
same,"Expansion of T cells from PBMC, total cell number relative to IL-2 alone","[2]; Donor 2, 10 μM Cbl-i",45%
same,"Expansion of T cells from PBMC, total cell number relative to IL-2 alone","[2]; Donor 2, IL-2 + 0.1 μM Cbl-i",2059%
same,"Expansion of T cells from PBMC, total cell number relative to IL-2 alone","[2]; Donor 2, IL-2 + 1.0 μM Cbl-i",170%
same,"Expansion of T cells from PBMC, total cell number relative to IL-2 alone","[2]; Donor 2, IL-2 + 10 μM Cbl-i",2161%
same,"Expansion of T cells from PBMC, total cell number relative to IL-2 alone","[2]; Donor 3, 0.1 μM Cbl-i",175%
same,"Expansion of T cells from PBMC, total cell number relative to IL-2 alone","[2]; Donor 3, 1.0 μM Cbl-i",75%
same,"Expansion of T cells from PBMC, total cell number relative to IL-2 alone","[2]; Donor 3, 10 μM Cbl-i",38%
same,"Expansion of T cells from PBMC, total cell number relative to IL-2 alone","[2]; Donor 3, IL-2 + 0.1 μM Cbl-i",3622%
same,"Expansion of T cells from PBMC, total cell number relative to IL-2 alone","[2]; Donor 3, IL-2 + 1.0 μM Cbl-i",2145%
same,"Expansion of T cells from PBMC, total cell number relative to IL-2 alone","[2]; Donor 3, IL-2 + 10 μM Cbl-i",1151%

# Reference: patent US12121540B2, “CBL inhibitors and compositions for use in adoptive cell therapy” (Nurix Therapeutics, Inc., priority 2019, dated 2024)
